According to US8097733B2, “Pyrazole derivatives as 5-LO-inhibitors” (Pfizer Inc., priority 2007, dated 2012):

Legend:
recombinant human 5-LOX = target: T1, recombinant human 5-LOX (Homo sapiens, UniProt P09917); assay: Fluorescence Intensity 5-LOX Enzyme Assay; assay type: biochemical; settings: crude lysate of recombinant human 5-LOX; highest inhibitor concentration tested typically 25 μM
T1 sequence (P09917 1-674): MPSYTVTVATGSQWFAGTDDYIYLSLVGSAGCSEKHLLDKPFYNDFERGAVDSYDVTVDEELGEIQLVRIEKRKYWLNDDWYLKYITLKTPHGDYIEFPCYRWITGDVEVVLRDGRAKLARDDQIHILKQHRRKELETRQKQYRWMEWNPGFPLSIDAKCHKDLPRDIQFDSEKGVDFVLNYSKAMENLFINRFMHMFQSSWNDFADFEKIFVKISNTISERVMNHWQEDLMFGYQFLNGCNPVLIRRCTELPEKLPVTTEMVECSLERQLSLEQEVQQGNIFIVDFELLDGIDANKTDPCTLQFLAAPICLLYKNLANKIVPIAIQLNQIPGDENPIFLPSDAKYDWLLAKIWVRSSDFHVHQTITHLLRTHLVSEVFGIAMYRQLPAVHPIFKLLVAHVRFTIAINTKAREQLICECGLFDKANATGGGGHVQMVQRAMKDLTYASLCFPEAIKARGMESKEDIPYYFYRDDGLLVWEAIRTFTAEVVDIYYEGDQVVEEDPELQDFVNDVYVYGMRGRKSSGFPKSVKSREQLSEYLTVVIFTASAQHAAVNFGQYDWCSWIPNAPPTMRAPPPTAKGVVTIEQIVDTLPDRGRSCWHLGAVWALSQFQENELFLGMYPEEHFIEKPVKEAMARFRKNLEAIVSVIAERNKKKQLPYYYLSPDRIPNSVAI
Excerpt: Bio Data Assays for Allergic and Non Allergic Airways Diseases Fluorescence Intensity 5-LOX Enzyme Assay
The enzyme assay is based on the oxidation of the non-fluorescent compound 2′7′-dichlorodihydrofluorescein diacetate (H2DCFDA) to the fluorescent 2′,7′-dichlorofluorescein by 5-LOX in an arachidonic acid-dependent reaction. Ester cleavage of the acetate groups of the substrate H2DCFDA must occur prior to oxidation. This is achieved through use of a crude cell lysate preparation of recombinant human 5-LOX. The enzyme assay ([…]) contained 50 mM Tris (pH 7.5), 2 mM CaCl2, 2 mM EDTA, 3 μM arachidonic acid (Nu-Chek Prep; #S-1133), 10 μM ATP, 10 μM H2DCFDA (Invitrogen; #D399), inhibitor (varying concentration) and recombinant human 5-LOX enzyme (1.25 μL crude lysate per well).
Inhibitors (dissolved in DMSO) were plated into a 384-well assay plate (Corning #3654) at 1 μL followed by a 20 μL addition of a solution containing 5-LO enzyme and H2DCFDA. Enzyme and H2DCFDA were pre-incubated for 5 min to allow time for acetate group cleavage of the dye prior to addition to the assay plate. After a 10 min pre-incubation of inhibitor and enzyme/dye mix, the assay was initiated by the addition of a substrate solution containing arachidonic acid and ATP. The enzymatic reaction was run for 20 min at room temperature and terminated by the addition of 40 μL of acetonitrile. Assay plates were read in a plate reader using standard wavelengths for fluorescein. IC50s of inhibitors were calculated using a 4-parameter fit using 7 inhibitor concentrations in duplicate with 3-fold serial dilutions. Controls on each plate included no inhibitor (zero percent effect) and 25 μM C J-13610 (one hundred percent effect). The highest inhibitor concentration tested was typically 25 μM. The final DMSO concentration in the assay was 2.5%.

[1] = system: human whole blood (leukotriene and prostaglandin levels); assay: Eicosanoid production from human whole blood; assay type: cell-based; settings: human whole blood stimulated with calcium ionophore A23187 and arachidonic acid; ELISA
Method: Human whole blood is collected in 10 ml heparin tubes (Vacutainer, Becton Dickenson). Collected blood is pooled and 80 μL is dispensed into each well of 384 well polypropylene plates. A PlateMate is used to add 2 μL of compound solution in DMSO to the 80 μL of blood in the polypropylene plates. The plate, with blood and compound added, is incubated at room temperature for 10 minutes. 2 μL of a calcimycin (800 ng/ml) (A23187 C-7522, Sigma) and arachidonic acid (30 μM) (NU-Chek PREP, INC. S-1133) solution in 60% ethanol is then added to the blood using a Micromultidrop. The plates are then incubated at 37° C. in a shallow water bath for 15 minutes. Plates are then spun at 800 g for 10 minutes at 4° C. Supernatant is removed and assayed by Elisa (Caymen Chemical).
Eicosanoid Production from Human Whole Blood:
Human whole blood was collected from healthy or asthmatic human donors in 10 ml heparinized tubes (Vacutainer tubes; Becton Dickenson, Franklin Lakes, N.J.). Collected blood was pooled and 80 μL was dispensed into each well of 384 well polypropylene plates using a Multi-prop™ 384-well dispenser (Titertek, Huntsville, Ala.). Varying concentrations of compounds were dissolved in DMSO then 2 μL/well was added to the blood using a PlateMate Plus™ automated pipetting station (Matrix Technologies, Hudson, N.H.). The compounds were preincubated with the blood at room temperature for 10 minutes followed by stimulation with 40 μM calcium ionophore (A23187, Sigma Chemical Co, St. Louis, Mo., Cat. # C-7522) and 30 μM arachidonic acid (S-1133, NU-Chek PREP, Inc., Elysian, MN, Cat. # S-1133) dissolved in 60% ethanol. After 15 min incubation at 37° C. in a shallow water bath, the blood was centrifuged at 8009 for 10 minutes at 4° C., the supernatants collected, and leukotriene and prostaglandin levels measured by ELISA according to the manufacturer's directions (Cayman Chemical Company, Ann Arbor, Mich.). The assay was performed at a final concentration of 2.5% DMSO.

| Compound | IC50 (recombinant human 5-LOX) [nM] | IC50 [1] [nM] |
| --- | --- | --- |
| Cn1nccc1Oc1ncc(Sc2cccc(C3(C(N)=O)CCOCC3)c2F)cc1Cl [Example 61, 4-[3-({5-chloro-6-[(1-methyl-1H-pyrazol-5-yl)oxy]pyridin-3-yl}thio)-2-fluorophenyl]tetrahydro-2H-pyran-4-carboxamide] | 327 | 2160 |
| Cn1nccc1Cc1ccc(Sc2cccc(C3(C(N)=O)CCOCC3)c2)cc1 [Example 35, 4-[3-({4-[(1-methyl-1H-pyrazol-5-yl)methyl]phenyl}thio)phenyl]tetrahydro-2H-pyran-4-carboxamide] | 313 | 769 |
| NC(=O)C1(c2cccc(Sc3ccc(-c4ccnn4C4CCCCC4)cc3)c2)CCOCC1 [Example 5, 4-(3-{[4-(1-cyclohexyl-1H-pyrazol-5-yl)phenyl]thio}phenyl)tetrahydro-2H-pyran-4-carboxamide] | 15.9 | 410 |
| C[C@H]1C[C@@](C#N)(c2cccc([S+]([O-])c3ccc(-c4ccnn4C)cc3)c2F)CCO1 (stereo partly drawn) [Example 54, (2S,4R)-4-(2-fluoro-3-(4-(1-methyl-1H-pyrazol-5-yl)phenylsulfinyl)phenyl)-2-methyl-tetrahydro-2H-pyran-4-carbonitrile] | 447 | 1160 |
| C[C@H]1C[C@@](C(N)=O)(c2cccc(Sc3ccc(-c4ccnn4C)c(F)c3)c2)CCO1 [Example 30, (2S,4R)-4-(3-(3-fluoro-4-(1-methyl-1H-pyrazol-5-yl)phenylthio)phenyl)-2-methyl-tetrahydro-2H-pyran-4-carboxamide] | 14 | 200 |
| Cn1nccc1C(=O)c1cc(F)c(Sc2cccc(C3(C(N)=O)CCOCC3)c2)cc1F [Example 63, 4-[3-({2,5-difluoro-4-[(1-methyl-1H-pyrazol-5-yl)carbonyl]phenyl}thio)phenyl]tetrahydro-2H-pyran-4-carboxamide] | 256 | 1260 |
| COc1ccc(C2(C(N)=O)CCOCC2)cc1Sc1ccc(-c2ccnn2C)cc1 [Example 44, 4-(4-methoxy-3-(4-(1-methyl-1H-pyrazol-5-yl)phenylthio)phenyl)-tetrahydro-2H-pyran-4-carboxamide] | 138 | 866 |
| Cn1nccc1-c1ncc(Sc2cccc(C3(C#N)CCOCC3)c2)cc1Cl [Example 47, 4-(3-{[5-chloro-6-(1-methyl-1H-pyrazol-5-yl)pyridin-3-yl]thio}phenyl)tetrahydro-2H-pyran-4-carbonitrile] | 7770 | 676 |
| CNC(=O)C1(c2cccc(Sc3ccc(C(=O)c4ccnn4C)cc3)c2)CCOCC1 [Example 72, N-methyl-4-[3-({4-[(1-methyl-1H-pyrazol-5-yl)carbonyl]phenyl}thio)phenyl]tetrahydro-2H-pyran-4-carboxamide] | 109 | 6360 |
| CNC(=O)C1(c2cc(F)cc(Sc3ccc(-c4ccnn4C)cc3)c2)CCOCC1 [Example 18, 4-(3-fluoro-5-{[4-(1-methyl-1H-pyrazol-5-yl)phenyl]thio}-phenyl)-N-methyltetrahydro-2H-pyran-4-carboxamide] | 369 | 596 |
| Cn1nccc1C(=O)c1ccc(Sc2cccc(C3(C(N)=O)CCOCC3)c2)cc1Cl [Example 36] | 188 | 466 |
| Cc1cc(Sc2cccc(C3(C(N)=O)CCOCC3)c2)ccc1-c1ccnn1C [Example 14, 4-(3-{[3-methyl-4-(1-methyl-1H-pyrazol-5-yl)phenyl]thio}phenyl)tetrahydro-2H-pyran-4-carboxamide] | 110 | 447 |
| CCc1cn[nH]c1-c1ccc(Sc2cccc(C3(C(N)=O)CCOCC3)c2)cc1 [Example 59, 4-(3-{[4-(4-ethyl-1H-pyrazol-5-yl)phenyl]thio}phenyl)tetrahydro-2H-pyran-4-carboxamide] | 816 | 890 |
| COc1cc(Sc2cccc(C3(C(N)=O)CCOCC3)c2)ccc1C(=O)c1ccnn1C [Example 71, 4-[3-({3-methoxy-4-[(1-methyl-1H-pyrazol-5-yl)carbonyl]phenyl}thio)phenyl]tetrahydro-2H-pyran-4-carboxamide] | 430 | 1980 |
| CCn1nccc1-c1ccc(Sc2cccc(C3(C(N)=O)CCOCC3)c2)cc1 [Example 8, 4-(3-{[4-(1-ethyl-1H-pyrazol-5-yl)phenyl]thio}phenyl)tetrahydro-2H-pyran-4-carboxamide] | 14 | 253 |
| Cn1nccc1C(=O)c1ccc(Sc2cccc(C3(C(N)=O)CCOCC3)c2)c(F)c1 [Example 67, 4-[3-({2-fluoro-4-[(1-methyl-1H-pyrazol-5-yl)carbonyl]phenyl}thio)phenyl]tetrahydro-2H-pyran-4-carboxamide] | 209 | 1210 |
| Cn1ncc(Br)c1-c1ccc(Sc2cccc(C3(C(N)=O)CCOCC3)c2)cc1F [Example 78, 4-(3-{[4-(4-bromo-1-methyl-1H-pyrazol-5-yl)-3-fluorophenyl]thio}phenyl)tetrahydro-2H-pyran-4-carboxamide] | 153 | 1380 |
| Cn1ncc(Br)c1-c1ccc(Sc2cccc(C3(C(N)=O)CCOCC3)c2)cc1 [Example 76, 4-(3-{[4-(4-bromo-1-methyl-1H-pyrazol-5-yl)phenyl]thio}phenyl)tetrahydro-2H-pyran-4-carboxamide] | 108 | 727 |
| COc1ccc(C2(C#N)CCOCC2)cc1Sc1ccc(-c2ccnn2C)cc1 [Example 43, 4-(4-methoxy-3-(4-(1-methyl-1H-pyrazol-5-yl)phenylthio)phenyl)-tetrahydro-2H-pyran-4-carbonitrile] | 575 | 913 |
| C[C@H]1C[C@@](C#N)(c2ccc(F)c(Sc3ccc(-c4ccnn4C)cc3)c2F)CCO1 [28(2), (2S,4R)-4-(2,4-difluoro-3-(4-(1-methyl-1H-pyrazol-5-yl)phenylthio)phenyl)-2-methyl-tetrahydro-2H-pyran-4-carbonitrile] | 38.9 | 42.2 |
| NC(=O)C1(c2cccc(Sc3ccc(-c4ccnn4CC4CCCC4)cc3)c2)CCOCC1 [Example 7, 4-[3-({4-[1-(cyclopentylmethyl)-1H-pyrazol-5-yl]phenyl}thio)phenyl]tetrahydro-2H-pyran-4-carboxamide] | 38.6 | 78.5 |
| Cn1nccc1-c1ccc(Sc2cccc(C3(C#N)CCOCC3)c2F)c(F)c1 [Example 45, 4-(2-fluoro-3-(2-fluoro-4-(1-methyl-1H-pyrazol-5-yl)phenylthio)phenyl)tetrahydro-2H-pyran-4-carbonitrile] | 84 | 33 |
